Here are results for 20 molecules from patent publication US8426442B2, “Compounds” (Xention Ltd, priority 2009, dated 2013).

In one assay the target is hKv1.3 (Homo sapiens, UniProt P22001). The experiment in a line: hKv1.3 % inhibition. The following applies: for inhibition at 1 µM: read-out: hKv1.3 % inh. 1 uM. The assay is classed as cell-based.
The target of the next assay is hKv1.5 (Homo sapiens, UniProt P22460). The experiment in a line: hKv1.5 % inhibition. The following applies: for inhibition at 0.3 µM: read-out: hKv1.5 % inh. 300 nM. The assay is classed as cell-based.
hKv1.5, sequence (P22460 whole entry): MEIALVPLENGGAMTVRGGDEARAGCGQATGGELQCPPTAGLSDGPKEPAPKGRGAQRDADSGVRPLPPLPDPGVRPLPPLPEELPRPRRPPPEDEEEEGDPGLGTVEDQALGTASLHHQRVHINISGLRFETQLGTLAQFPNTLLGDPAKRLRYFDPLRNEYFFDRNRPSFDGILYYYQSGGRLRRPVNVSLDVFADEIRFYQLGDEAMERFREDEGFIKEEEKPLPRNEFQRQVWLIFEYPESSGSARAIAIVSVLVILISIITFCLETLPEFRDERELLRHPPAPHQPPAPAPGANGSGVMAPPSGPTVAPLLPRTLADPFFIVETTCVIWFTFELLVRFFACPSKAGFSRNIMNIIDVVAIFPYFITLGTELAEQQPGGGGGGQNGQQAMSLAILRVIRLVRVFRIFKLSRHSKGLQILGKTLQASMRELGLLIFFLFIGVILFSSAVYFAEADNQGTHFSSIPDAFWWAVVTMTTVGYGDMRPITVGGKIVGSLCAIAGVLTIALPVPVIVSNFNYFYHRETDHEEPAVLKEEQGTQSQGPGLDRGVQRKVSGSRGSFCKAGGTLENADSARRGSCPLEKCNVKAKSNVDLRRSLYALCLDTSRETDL

hKv1.3, sequence (P22001 whole entry): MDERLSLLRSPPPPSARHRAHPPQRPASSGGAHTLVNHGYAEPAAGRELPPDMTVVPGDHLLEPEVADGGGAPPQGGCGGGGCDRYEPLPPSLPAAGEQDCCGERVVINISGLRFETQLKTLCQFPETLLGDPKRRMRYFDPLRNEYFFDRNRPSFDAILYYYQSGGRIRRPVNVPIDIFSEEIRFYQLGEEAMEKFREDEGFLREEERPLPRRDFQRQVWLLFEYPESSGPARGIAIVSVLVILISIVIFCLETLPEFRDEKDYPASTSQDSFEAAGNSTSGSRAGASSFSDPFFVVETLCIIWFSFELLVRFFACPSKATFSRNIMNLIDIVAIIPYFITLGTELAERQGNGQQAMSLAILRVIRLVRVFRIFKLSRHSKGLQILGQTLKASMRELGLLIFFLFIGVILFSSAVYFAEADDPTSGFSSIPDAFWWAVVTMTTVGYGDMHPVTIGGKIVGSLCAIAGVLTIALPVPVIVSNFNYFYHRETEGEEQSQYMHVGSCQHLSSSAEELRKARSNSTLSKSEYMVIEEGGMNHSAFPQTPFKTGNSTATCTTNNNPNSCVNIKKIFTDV

“1-Methyl-1H-pyrazole-3-sulfonic acid (4-chloro-benzyl)-[1-(3-methoxy-propionyl)-2,3-dihydro-1H-indol-6-yl]-amide [Example 2]”: on hKv1.3, the “hKv1.3 % inh. 1 uM” value is 99.1%.

For “1-Methyl-1H-pyrazole-3-sulfonic acid benzyl-[2-(2-cyano-acetyl)-1,2,3,4-tetrahydro-isoquinolin-6-yl]-amide [Example 9]”, the “hKv1.3 % inh. 1 uM” value on hKv1.3 is given as 71.6%. For the same molecule, the “hKv1.5 % inh. 300 nM” value on hKv1.5 was determined as 27.6%.

On to “1-Methyl-1H-pyrazole-3-sulfonic acid benzyl-[2-(2-methoxy-acetyl)-1,2,3,4-tetrahydro-isoquinolin-6-yl]-amide [Example 18]”, for which the “hKv1.3 % inh. 1 uM” value on hKv1.3 amounted to 51.1%. In addition, the “hKv1.5 % inh. 300 nM” value at hKv1.5 is 34.6%.

As for “1-Methyl-1H-pyrazole-3-sulfonic acid benzyl-[2-(3-methoxy-propionyl)-1,2,3,4-tetrahydro-isoquinolin-6-yl]-amide [Example 12]”, the “hKv1.3 % inh. 1 uM” value at hKv1.3 turned out to be 64.3%. The “hKv1.5 % inh. 300 nM” value on hKv1.5 came out at 41.7%.

For “1-Methyl-1H-pyrazole-3-sulfonic acid benzyl-[2-(pyridine-2-carbonyl)-1,2,3,4-tetrahydro-isoquinolin-6-yl]-amide [Example 17]”, at hKv1.3, the “hKv1.3 % inh. 1 uM” value was 54.8%. Besides, the “hKv1.5 % inh. 300 nM” value on hKv1.5 was determined as 36.7%.

In the case of `COCC(=O)N1CCc2ccc(N(Cc3ccc(Cl)cc3)S(=O)(=O)c3ccn(C)n3)cc21` [Example 1, 1-Methyl-1H-pyrazole-3-sulfonic acid (4-chloro-benzyl)-[1-(2-methoxy-acetyl)-2,3-dihydro-1H-indol-6-yl]-amide], the inhibition at 1 µM at hKv1.3 turned out to be 100%. In addition, the inhibition at 0.3 µM at hKv1.5 was determined as 92.1%.

Regarding `CC(=O)N1CCc2ccc(N(Cc3ccc(Cl)cc3)S(=O)(=O)c3ccn(C)n3)cc21` [Example 3, 1-Methyl-1H-pyrazole-3-sulfonic acid (1-acetyl-2,3-dihydro-1H-indol-6-yl)-(4-chloro-benzyl)-amide], the inhibition at 1 µM at hKv1.3 was determined as 98%. Moreover, the inhibition at 0.3 µM at hKv1.5 was found to be 89.5%.

Consider `CC(=O)N1CCc2cc(N(Cc3ccc(Cl)cc3)S(=O)(=O)c3ccn(C)n3)ccc21` [Example 4, 1-Methyl-1H-pyrazole-3-sulfonic acid (1-acetyl-2,3-dihydro-1H-indol-5-yl)-(4-chloro-benzyl)-amide], for which, on hKv1.3, the inhibition at 1 µM amounted to 91.3%. In addition, the inhibition at 0.3 µM on hKv1.5 came out at 86.1%.

With `COCCC(=O)N1CCc2cc(N(Cc3ccc(Cl)cc3)S(=O)(=O)c3ccn(C)n3)ccc21` [Example 5, 1-Methyl-1H-pyrazole-3-sulfonic acid (4-chloro-benzyl)-[1-(3-methoxy-propionyl)-2,3-dihydro-1H-indol-5-yl]-amide], the inhibition at 1 µM on hKv1.3 was found to be 90.7%. Also, the inhibition at 0.3 µM on hKv1.5 came to 65.2%.

Turning to `Cn1cnc(S(=O)(=O)N(Cc2ccc(Cl)cc2)c2ccc3c(c2)NCC3)c1` [Example 6, 1-Methyl-1H-imidazole-4-sulfonic acid (4-chloro-benzyl)-(2,3-dihydro-1H-indol-6-yl)-amide], the inhibition at 1 µM on hKv1.3 was determined as 85.4%. Also, the inhibition at 0.3 µM on hKv1.5 stood at 37.1%.

Take `Cn1ccc(S(=O)(=O)N(Cc2ccc(Cl)cc2)c2ccc3c(c2)CCN3C(=O)CC#N)n1` [Example 7, 1-Methyl-1H-pyrazole-3-sulfonic acid (4-chloro-benzyl)-[1-(2-cyano-acetyl)-2,3-dihydro-1H-indol-5-yl]-amide]: the inhibition at 1 µM on hKv1.3 was 77.2%. Further, the inhibition at 0.3 µM on hKv1.5 came to 48.3%.

In the case of `CC(=O)N1CCc2cc(N(Cc3ccc(Cl)cc3)S(=O)(=O)c3cn(C)cn3)ccc2C1` [Example 8, 1-Methyl-1H-imidazole-4-sulfonic acid(2-acetyl-1,2,3,4-tetrahydro-isoquinolin-6-yl)-(4-chlorobenzyl)-amide], the “hKv1.3 % inh. 1 uM” value on hKv1.3 came out at 73.3%. Moreover, on hKv1.5, the “hKv1.5 % inh. 300 nM” value was 25.2%.

On to `CC(=O)N1CCc2cc(N(Cc3ccccc3)S(=O)(=O)c3ccn(C)n3)ccc2C1` [Example 10, 1-Methyl-1H-pyrazole-3-sulfonic acid (2-acetyl-1,2,3,4-tetrahydro-isoquinolin-6-yl)-benzyl-amide], for which the inhibition at 1 µM on hKv1.3 was determined as 67.2%. Further, the inhibition at 0.3 µM on hKv1.5 worked out at 37.5%.

For the molecule `COCCC(=O)N1CCc2ccc(N(Cc3ccc(Cl)cc3)S(=O)(=O)c3cn(C)cn3)cc21` [Example 11, 1-Methyl-1H-imidazole-4-sulfonic acid (4-chloro-benzyl)-[1-(3-methoxy-propionyl)-2,3-dihydro-1H-indol-6-yl]-amide], the inhibition at 1 µM on hKv1.3 amounted to 65.6%. Also, on hKv1.5, the inhibition at 0.3 µM is 20.9%.

For the molecule `COCC(=O)N1CCc2cc(N(Cc3ccc(Cl)cc3)S(=O)(=O)c3ccn(C)n3)ccc21` [Example 13, 1-Methyl-1H-pyrazole-3-sulfonic acid (4-chloro-benzyl)-[1-(2-methoxy-acetyl)-2,3-dihydro-1H-indol-5-yl]-amide], at hKv1.3, the inhibition at 1 µM came out at 64.2%. Moreover, on hKv1.5, the inhibition at 0.3 µM stood at 66.6%.

As for `COCC(=O)N1CCc2cc(N(Cc3ccc(Cl)cc3)S(=O)(=O)c3cn(C)cn3)ccc2C1` [Example 14, 1-Methyl-1H-imidazole-4-sulfonic acid (4-chloro-benzyl)-[2-(2-methoxy-acetyl)-1,2,3,4-tetrahydro-isoquinolin-6-yl]-amide], the inhibition at 1 µM on hKv1.3 was determined as 62.7%. For the same molecule, the inhibition at 0.3 µM on hKv1.5 worked out at 32.1%.

Consider `Cn1cnc(S(=O)(=O)N(Cc2ccc(Cl)cc2)c2ccc3c(c2)CCN3)c1` [Example 15, 1-Methyl-1H-imidazole-4-sulfonic acid (4-chloro-benzyl)-(2,3-dihydro-1H-indol-5-yl)-amide], for which the inhibition at 1 µM at hKv1.3 is 61.1%. For the same molecule, on hKv1.5, the inhibition at 0.3 µM was 20.5%.

In the case of `COCCC(=O)N1CCc2cc(N(Cc3ccc(Cl)cc3)S(=O)(=O)c3cn(C)cn3)ccc2C1` [Example 16, 1-Methyl-1H-imidazole-4-sulfonic acid (4-chloro-benzyl)-[2-(3-methoxy-propionyl)-1,2,3,4-tetrahydro-isoquinolin-6-yl]-amide], at hKv1.3, the inhibition at 1 µM was found to be 57.5%. On hKv1.5, the inhibition at 0.3 µM amounted to 32.2%.

As for `Cn1cnc(S(=O)(=O)N(Cc2ccc(Cl)cc2)c2ccc3c(c2)CCN(C(=O)CO)C3)c1` [Example 19, 1-Methyl-1H-imidazole-4-sulfonic acid (4-chloro-benzyl)-[2-(2-hydroxy-acetyl)-1,2,3,4-tetrahydro-isoquinolin-6-yl]-amide], the inhibition at 1 µM on hKv1.3 was determined as 49.5%. The inhibition at 0.3 µM at hKv1.5 worked out at 16.2%.

As to `Cn1cnc(S(=O)(=O)N(Cc2ccc(Cl)cc2)c2ccc3c(c2)CCN(C(=O)CC#N)C3)c1` [Example 20, 1-Methyl-1H-imidazole-4-sulfonic acid (4-chloro-benzyl)-[2-(2-cyano-acetyl)-1,2,3,4-tetrahydro-isoquinolin-6-yl]-amide], the inhibition at 1 µM on hKv1.3 came out at 48.5%. On hKv1.5, the inhibition at 0.3 µM was 13.4%.
